Results on 2 compounds are retold here after article PMC11277056, “Effects of SRI-32743, a Novel Quinazoline Structure-Based Compound, on HIV-1 Tat and Cocaine Interaction with Norepinephrine Transporter” (International Journal of Molecular Sciences, 2024).

Common to all, as to type: cell-based
Test [1] addresses T1, norepinephrine transporter (hNET) (Homo sapiens, UniProt P23975).
T1 construct: gene SLC6A2; WT hNET
Briefly: [3H]MPP+ preloading and efflux in CHO cells expressing WT hNET.

For test [2], the target named is T1, norepinephrine transporter (hNET). Briefly: [3H]Nisoxetine competition binding in intact CHO-K1 cells; also [3H]DA uptake inhibition (IC50 […]) and slowed [3H]Nisoxetine dissociation.
The target in test [3] is T2, dopamine transporter (hDAT) (Homo sapiens, UniProt Q01959).
T2 construct: gene SLC6A3; WT hDAT
Briefly: [3H]DA uptake inhibition in CHO-K1 cells expressing WT hDAT.

As usually defined, the IC50 is the concentration at which inhibition is half-maximal. Low readings indicate greater potency, high ones weaker potency.

T1 sequence (P23975 whole entry): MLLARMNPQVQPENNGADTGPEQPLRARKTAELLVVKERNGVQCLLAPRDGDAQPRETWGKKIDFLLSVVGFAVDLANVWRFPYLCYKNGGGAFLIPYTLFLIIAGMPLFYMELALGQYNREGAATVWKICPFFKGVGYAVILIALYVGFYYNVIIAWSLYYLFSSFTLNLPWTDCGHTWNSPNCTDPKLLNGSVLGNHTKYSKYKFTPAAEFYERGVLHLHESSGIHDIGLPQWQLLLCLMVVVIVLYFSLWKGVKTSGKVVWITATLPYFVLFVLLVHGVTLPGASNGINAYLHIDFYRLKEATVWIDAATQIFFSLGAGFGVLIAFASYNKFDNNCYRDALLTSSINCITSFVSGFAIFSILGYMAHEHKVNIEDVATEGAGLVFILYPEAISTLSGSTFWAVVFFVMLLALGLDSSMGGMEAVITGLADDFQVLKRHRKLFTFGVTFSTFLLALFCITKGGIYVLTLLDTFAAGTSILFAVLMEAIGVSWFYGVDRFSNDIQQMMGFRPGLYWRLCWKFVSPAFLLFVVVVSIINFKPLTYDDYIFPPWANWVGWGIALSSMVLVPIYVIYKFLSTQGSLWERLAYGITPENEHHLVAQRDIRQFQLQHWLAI
T2 sequence (Q01959 whole entry): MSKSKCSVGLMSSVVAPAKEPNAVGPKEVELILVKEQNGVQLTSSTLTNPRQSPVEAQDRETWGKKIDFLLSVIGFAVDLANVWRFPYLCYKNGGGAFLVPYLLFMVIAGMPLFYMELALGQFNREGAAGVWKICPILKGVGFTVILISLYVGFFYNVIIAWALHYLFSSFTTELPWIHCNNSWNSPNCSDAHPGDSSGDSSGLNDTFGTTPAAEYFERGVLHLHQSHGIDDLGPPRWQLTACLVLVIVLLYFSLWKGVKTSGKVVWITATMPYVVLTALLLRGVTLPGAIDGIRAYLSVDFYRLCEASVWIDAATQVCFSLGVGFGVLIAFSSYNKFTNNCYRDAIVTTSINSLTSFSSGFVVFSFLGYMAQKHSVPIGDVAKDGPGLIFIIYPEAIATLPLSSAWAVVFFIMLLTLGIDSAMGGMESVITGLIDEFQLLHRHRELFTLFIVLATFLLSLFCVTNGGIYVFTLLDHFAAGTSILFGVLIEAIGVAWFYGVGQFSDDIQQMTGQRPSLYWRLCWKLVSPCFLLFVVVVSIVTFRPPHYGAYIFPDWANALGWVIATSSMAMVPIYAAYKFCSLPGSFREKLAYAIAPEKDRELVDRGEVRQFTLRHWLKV

With `C[n+]1ccc(-c2ccccc2)cc1` [MPP+, N-methyl-4-phenylpyridinium], the “[3H]MPP+ preloading and efflux in CHO cells expressing WT hNET” value in test [1] is “decreased both basal [^3H]DA and [^3H]MPP^+ efflux via WT hNET compared with the control”.
Turning to SRI-32743, the values for the IC50 in test [2] and in test [3] were 26.4 ± 5.17 µM and 8.16 ± 1.16 µM, respectively.
